Laboratory results published in patent US20260256668A1, “METHODS FOR STRENGTHENING AND REPAIRING HAIR” (Living Proof, Inc., priority 2023, published 2026).

Legend:
[1] = Water contact angle (surface hydrophobicity), DSA100M Drop Shape Analyzer
Method: For this test, […], which was prepared by treating European virgin brown hair with a mixture of BW2 bleaching powder and clear 30 V developer (1:1.5 ratio, 5 g mixture per 1.5 g of hair) for 20 min under a Belvedere hooded dryer with high heat setting, followed by 30 s water rinse, 30 s 10% SLES wash, and air dry at room temperature. […] In the DSA method, a single hair fiber is mounted in a sample holder and focused by the digital camera of DSA100M. Then a droplet of filtered DI water (20-60 nL) is applied to the top of the hair fiber by a digital droplet applier, A video is then recorded until the disappearance of the water droplet. The water contact angle is obtained using the first image of the water droplet recorded. The data is collected for 3 fibers per treatment and 3 points per fiber, a total of 9 data points per treatment.

[2] = Hair denaturation temperature (Td) by differential scanning calorimeter (DSC); settings: 3× bleached hair; for hair denaturation temperature (Td) compared to bleached, virgin and phytic acid (PA) treated hair: 2 wt % active aqueous solution, pH 4.0-4.5, 10 min, blow dry (FIGS. 4, 6, 7)
Method: European virgin brown hair was bleached three times to obtain the 3× bleached hair model. Each bleaching was done with a mixture of bleaching powder (BW2) and 40V clear developer at 1:2 ratio (5 g mixture per 1.5 g of hair) for 1 hour at room temperature, followed by 30 s water rinse, 1× wash with Sodium Lauryl Ether Sulfate (SLES), and dried in a humidity chamber for 15 min at 50° C., 20% RH. […] For each DSC measurement, a 3-5 mg of hair sample in 50 μL Deionized water is sealed and equilibrated (overnight) in a stainless-steel pressure resistant high-volume pan, then heated from 25° C. to 180° C. at a 5° C./min heating rate.

[3] = Dia-Stron single fiber tensile (mechanical) testing; settings: 3× bleached hair, compared to bleached hair before treatment (FIG. 8)
Method: All single fiber tensile measurements are performed using a Dia-Stron MTT686/MTT690 (under 100% extension at gauge force of […], break threshold of 5 g, rate of 20 mm/min, maximum force of 2000 gmf and premature failure threshold of 10% strain). Before the tensile testing, all hair fibers (30 mm in length, ≥20 fibers per treatment) are fixed by 2 brass crimps at the ends and mounted on a Dia-Stron tray. Initial dimension measurements are collected using a Dia-Stron FDAS770 (double ended samples, sample size of 30 mm in length, no of slices of 5 under one rotation per slice), followed by equilibration in Deionized water for at least 2 h prior to testing.

Molecule	Young's modulus [3]	hair denaturation temperature (Td) compared to bleached, virgin and phytic acid (PA) treated hair [2]	other results
O=P(O)(O)O[C@H]1[C@H](OP(=O)(O)O)[C@@H](OP(=O)(O)O)[C@H](OP(=O)(O)O)[C@@H](OP(=O)(O)O)[C@H]1OP(=O)(O)O [PA, phytic acid, reference compound]	–	–	hair surface hydrophobicity (water contact angle) compared to base formula ([1]; formula with PA 0.75 wt %, with or without DPhate 1 wt % (FIG. 18)): significantly improved hair surface hydrophobicity; hair denaturation temperature (Td) compared to the base formula ([2]; washed, 0.25 g formula (PA 0.75 wt %, with or without DPhate 1 wt %) 10 min, blow dried (FIG. 17)): significantly increased Td
NCP(=O)(O)O [AMPA, Aminomethyl phosphonic acid]	biggest increases in Young's modulus	full recovery of Td to the virgin level	–
C=CP(=O)(O)O [VPA, Vinyl phosphonic acid]	biggest increases in Young's modulus	full recovery of Td to the virgin level	–
CCCCCCCCCCCCOP(=O)(O)O [DPhate, Lauryl phosphate]	–	–	water contact angle relative to virgin hair ([1]; ethanol solution 2 wt %, 10 min, blow dry (FIG. 12)): recovered significantly and close to the virgin level
Phosphatidylcholine [PC]	–	–	water contact angle relative to virgin hair ([1]; aqueous solution 1 wt % active (FIG. 14)): recovered close to the virgin level
